Test results from ChEMBL document CHEMBL1201862, “PubChem BioAssay data set” (2004).
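Where inhibition never reached the appropriate level, the endpoint shown equals the highest concentration tested. Otherwise, values were interpolated linearly from a five-concentration, 48-hour dose response in 96-well plates. GI50 marks 50% less growth.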 Activity calls are given as the source filed them. No stated cut-off is given here; in the data, active = GI50 up to about 1.1 µM and inactive = higher.

What was measured:
Assay in all cases: NCI tumour cell line growth inhibition, 48 h
[1] = test system: BT-549
[2] = test system: XF498
[3] = test system: KM-20L2
[4] = test system: DMS-114
[5] = test system: LXFL 529
[6] = test system: RXF 631
[7] = test system: M19-MEL
[8] = test system: HOP-18
[9] = test system: DMS-273

**Q.** `C=CCCCCCCCCCOC1C=CC(OC(C)=O)C(COC(C)=O)O1` (centres undefined) was tested. Which GI50 [1] did it give?
**A.** 66.4 µM (inactive)

**Q.** How did the GI50 [1] turn out when `O=C(NCP(=O)(Oc1ccccc1)Oc1ccccc1)OCc1ccccc1` was run?
**A.** > 100 µM (inactive)

**Q.** `C/C=C/C(C#N)(Cc1ccccc1)OP1(=O)OC(c2ccccc2)C(C)N1C` (centres undefined) was tested. Which GI50 [1] did it give?
**A.** 90.2 µM (inactive)

**Q.** Which GI50 [1] does the source give for `COC(=O)c1c(O)ccc2c1c1c(n2Cc2ccc(OC)cc2)C(=O)c2ccccc2C1=O` here?
**A.** 0.0131 µM (active)

**Q.** `CNC1=Nc2ccccc2C(=O)N2CSCC12` (centres undefined) was tested. Which GI50 [1] did it give?
**A.** > 100 µM (inactive)

**Q.** `Cc1ccc(NC(=O)C(=O)C(C2C(C)CC(=O)C2CC(=O)O)[N+](=O)[O-])cc1` (centres undefined) was tested. Which GI50 [2] did it give?
**A.** > 100 µM (inactive)

**Q.** What about the GI50 [3] of the same molecule?
**A.** > 100 µM (inactive)

**Q.** And the GI50 [4]?
**A.** > 100 µM (inactive)

**Q.** And the GI50 [5]?
**A.** > 100 µM (inactive)

**Q.** Which GI50 [3] does the source give for `CC#COP(=O)(OCC)OCC` here?
**A.** > 100 µM (inactive)

**Q.** And the GI50 [4]?
**A.** > 100 µM (inactive)

**Q.** And the GI50 [6]?
**A.** > 100 µM (inactive)

**Q.** And the GI50 [7]?
**A.** > 100 µM (inactive)

**Q.** What about the GI50 [5] of the same molecule?
**A.** > 100 µM (inactive)

**Q.** With `COc1cccc(Cc2cc(=O)c3ccc(C)nc3[nH]2)c1` as the molecule, how does the GI50 [1] read?
**A.** 94.8 µM (inactive)

**Q.** How did the GI50 [1] turn out when `COC(c1ccsc1)C(C#N)(C#N)/N=C/c1ccsc1` (centres undefined) was run?
**A.** 17 µM (inactive)

**Q.** For `COc1cc2[nH]c(=O)c3cc(C)cc4c(Cl)nc(c1OC)c2c43`, which GI50 [1] is on record?
**A.** 35 µM (inactive)

**Q.** How did the GI50 [1] turn out when `CC(=O)Oc1cc(S(=O)(=O)Nc2nc(N)n[nH]2)c(S)cc1Cl` was run?
**A.** > 100 µM (inactive)

**Q.** For `CCCC(=O)C(CC)/C(CCC(=O)N(Cc1ccccc1)Cc1ccccc1)=N/NC(=O)C[N+](C)(C)C` (centres undefined), which GI50 [8] is on record?
**A.** > 100 µM (inactive)

**Q.** What about the GI50 [2] of the same molecule?
**A.** 65.2 µM (inactive)

**Q.** What about the GI50 [3] of the same molecule?
**A.** > 100 µM (inactive)

**Q.** What about the GI50 [4] of the same molecule?
**A.** > 100 µM (inactive)

**Q.** What about the GI50 [7] of the same molecule?
**A.** > 100 µM (inactive)

**Q.** What about the GI50 [5] of the same molecule?
**A.** > 100 µM (inactive)

**Q.** And the GI50 [9]?
**A.** > 100 µM (inactive)

**Q.** How did the GI50 [1] turn out when `CO[C@H]1O[C@@H]2CO[C@@H](c3ccccc3)O[C@H]2[C@@H]2CC=CCC[C@]12O` was run?
**A.** 24.6 µM (inactive)

**Q.** How did the GI50 [2] turn out when `CC(C)NC(C)C(C)c1ccccc1` (centres undefined) was run?
**A.** > 100 µM (inactive)

**Q.** What about the GI50 [3] of the same molecule?
**A.** > 100 µM (inactive)

**Q.** What about the GI50 [4] of the same molecule?
**A.** > 100 µM (inactive)

**Q.** What about the GI50 [7] of the same molecule?
**A.** > 100 µM (inactive)

**Q.** What about the GI50 [5] of the same molecule?
**A.** > 100 µM (inactive)

**Q.** What about the GI50 [9] of the same molecule?
**A.** > 100 µM (inactive)

**Q.** `CN1CCN(c2nc(N)c(Br)c(Cl)n2)CC1` was tested. Which GI50 [2] did it give?
**A.** > 100 µM (inactive)

**Q.** And the GI50 [3]?
**A.** > 100 µM (inactive)

**Q.** And the GI50 [4]?
**A.** > 100 µM (inactive)

**Q.** And the GI50 [7]?
**A.** > 100 µM (inactive)

**Q.** And the GI50 [5]?
**A.** > 100 µM (inactive)

**Q.** What about the GI50 [9] of the same molecule?
**A.** > 100 µM (inactive)

**Q.** What does the source list for `C#Cc1ccccc1N1C(=O)C=CC1=O`?
**A.** GI50 [3]: > 100 µM (inactive); GI50 [4]: > 100 µM (inactive); GI50 [7]: > 100 µM (inactive); GI50 [5]: > 100 µM (inactive)

**Q.** How did the GI50 [1] turn out when `O=C(O)c1ccccc1CC1Cc2cc3c(cc2C1)CCC3` was run?
**A.** > 100 µM (inactive)

**Q.** How did the GI50 [1] turn out when `O=c1c2ccccc2nc(Nc2cccc(Cl)c2)n1/N=C/C=C/c1ccccc1` was run?
**A.** > 100 µM (inactive)

**Q.** How did the GI50 [1] turn out when `CC(C)(C)OC(=O)NC1CC2(C=C(Br)C(=O)C(Br)=C2)OC1=O` (centres undefined) was run?
**A.** 16.5 µM (inactive)

**Q.** With `COc1ccc(N2C(=O)C3c4[nH]c5ccc(C)cc5c4C4CCC(C(C)C)CC4C3C2=O)cc1` (centres undefined) as the molecule, how does the GI50 [1] read?
**A.** > 100 µM (inactive)

**Q.** Which GI50 [1] does the source give for `COc1ccc(N(C(=O)Nc2ccc(Cl)c(Cl)c2)C2c3cccn3C(=O)N2c2ccc(Cl)c(Cl)c2)cc1` (centres undefined) here?
**A.** > 100 µM (inactive)

**Q.** For `CC(C)(N)CO[C@H]1C[C@H]2CC[C@@]1(C)C2(C)C`, which GI50 [1] is on record?
**A.** 23.1 µM (inactive)

**Q.** With `COc1ccc(SC(C)(SC)c2ccccn2)c(OC)n1` (centres undefined) as the molecule, how does the GI50 [1] read?
**A.** 64.9 µM (inactive)

**Q.** `COC(=O)C1=C(O)C(C(=O)OC)[C@]2(O)[C@H](C(=O)OC)[C@H]1C[C@@H](c1ccc([N+](=O)[O-])cc1)[C@H]2C(=O)OC` (some centres undefined) was tested. Which GI50 [1] did it give?
**A.** 15.9 µM (inactive)

**Q.** Which GI50 [8] does the source give for `CCCCCCCCCCCCCCCCCC(CCCCCCCCCCCCCCCCC)OP(=O)(O)O` here?
**A.** > 100 µM (inactive)

**Q.** And the GI50 [3]?
**A.** > 100 µM (inactive)

**Q.** What about the GI50 [4] of the same molecule?
**A.** > 100 µM (inactive)

**Q.** And the GI50 [7]?
**A.** > 100 µM (inactive)

**Q.** What about the GI50 [5] of the same molecule?
**A.** > 100 µM (inactive)

**Q.** What about the GI50 [9] of the same molecule?
**A.** > 100 µM (inactive)

**Q.** Which GI50 [1] does the source give for `O=C1Nc2ccccc2/C1=N\c1cccc2ncccc12` here?
**A.** > 100 µM (inactive)

**Q.** Which GI50 [1] does the source give for `CCOC(=O)N(c1ccccc1)c1cc(=O)n2ccccc2n1` here?
**A.** > 100 µM (inactive)

**Q.** How did the GI50 [1] turn out when `CC(C)(C)c1ccccc1N1C(=O)c2ccc3c4c(ccc(c24)C1=O)N(c1ccccc1C(C)(C)C)C3=O` was run?
**A.** > 100 µM (inactive)

**Q.** With `Cn1c(=O)oc2cc(C(O)CN3CCN(Cc4ccccn4)CC3)c(Cl)cc21` (centres undefined) as the molecule, how does the GI50 [1] read?
**A.** > 100 µM (inactive)

**Q.** With `C/C(=C\CO)CC/C=C(\C)CNc1c(F)c(F)c(F)c(F)c1F` as the molecule, how does the GI50 [1] read?
**A.** 6.4 µM (inactive)

**Q.** What does the source list for `CC(C)C(=O)N[C@@H](C)C(=O)N(Cc1ccc2ccccc2c1)N=O`?
**A.** GI50 [8]: 0.057 µM (active); GI50 [2]: > 100 µM (inactive); GI50 [3]: > 100 µM (inactive); GI50 [4]: 33.7 µM (inactive); GI50 [7]: 97.7 µM (inactive); GI50 [5]: 71.9 µM (inactive); GI50 [9]: 28.8 µM (inactive)

**Q.** How did the GI50 [1] turn out when `CC(C)(C)N/N=C(\C(=O)Nc1ccc([N+](=O)[O-])cc1[N+](=O)[O-])c1nc2ccc([N+](=O)[O-])cc2nc1O` was run?
**A.** > 100 µM (inactive)

**Q.** For `O=C(O)c1c(-c2ccccc2)c(=O)[nH]c2ccccc12`, which GI50 [1] is on record?
**A.** > 100 µM (inactive)

**Q.** With `CCCC(=O)Nc1ccc(O)c2c1C1CCCCCC21` (centres undefined) as the molecule, how does the GI50 [8] read?
**A.** > 100 µM (inactive)

**Q.** What about the GI50 [2] of the same molecule?
**A.** 65 µM (inactive)

**Q.** What about the GI50 [3] of the same molecule?
**A.** > 100 µM (inactive)

**Q.** What about the GI50 [4] of the same molecule?
**A.** 50.2 µM (inactive)

**Q.** And the GI50 [7]?
**A.** > 100 µM (inactive)

**Q.** And the GI50 [5]?
**A.** > 100 µM (inactive)

**Q.** What about the GI50 [9] of the same molecule?
**A.** > 100 µM (inactive)

**Q.** Which results are given for `O=C1C/C(Br)=C\c2ccccc2-c2ccccc21`?
**A.** GI50 [8]: 4.48 µM (inactive); GI50 [2]: 1.76 µM (inactive); GI50 [3]: 2.84 µM (inactive); GI50 [4]: 2.79 µM (inactive); GI50 [7]: 1.87 µM (inactive); GI50 [5]: 1.73 µM (inactive); GI50 [9]: 2.19 µM (inactive)
